Laboratory results as given in patent US6441180B1, “Tetrazolyl-phenyl actamide glucokinase activators” (Hoffmann-La Roche Inc., priority 2000, dated 2002).

Structure (SMILES) | melting point
Cc1nnnn1-c1ccc(C(CC2CCCC2)C(=O)Nc2ccc(Br)cn2)cc1F (stereo not drawn) [Example 2, N-(5-Bromo-pyridin-2-yl)-3-cyclopentyl-2-[3-fluoro-4-(5-methyl-tetrazol-1-yl)-phenyl]-propionamide] | 73 to 78 °C
Cc1nnnn1-c1ccc(C(CC2CCCC2)C(=O)Nc2nccs2)cc1Cl (stereo not drawn) [Example 3, 2-[3-Chloro-4-(5-methyl-tetrazol-1-yl)-phenyl]-3-cyclopentyl-N-thiazol-2-yl-propionamide] | 190 to 193 °C
Cc1nnnn1-c1cc(C(CC2CCCC2)C(=O)Nc2nccs2)ccc1S(C)(=O)=O (stereo not drawn) [Example 9, 3-Cyclopentyl-2-[4-methanesulfonyl-3-(5-methyl-tetrazol-1-yl)-phenyl]-N-thiazol-2-yl-propionamide] | 148 to 154 °C

The next lines start with the values.

melting point | Structure (SMILES)
185 to 186 °C | CNC(=O)NC(=O)C(CC1CCCC1)c1ccc(-n2nnnc2C)c(Cl)c1 (stereo not drawn) [Example 11, 1-{2-[3-Chloro-4-(5-methyl-tetrazol-1-yl)-phenyl]-3-cyclopentyl-propionyl}-3-methyl-urea]
186 to 192 °C | CNC(=O)NC(=O)/C(=C/C1CCCC1)c1ccc(-n2nnnc2C)c(F)c1 [Example 22, (E)-1-{3-Cyclopentyl-2-[3-fluoro-4-(5-methyl-tetrazol-1-yl)-phenyl]-acryloyl}-3-methyl-urea]
158 to 162 °C | Cc1nnnn1-c1ccc(/C(=C\C2CCCC2)C(=O)Nc2nccs2)cc1F [Example 12, (E)-3-Cyclopentyl-2-[3-fluoro-4-(5-methyl-tetrazol-1-yl)-phenyl]-N-thiazol-2-yl-acrlamide]
